The numbers were not newly measured in US11123309B2, “Methods for drug delivery, tumor imaging, and oxidative dehydrogenation using hierarchical ZSM-5 complex” (Imam Abdulrahman Bin Faisal University, priority 2018, dated 2021), which cites them from elsewhere.

Molecules are shown by their SMILES.

Consider `Oc1ccc(/C=C/c2cc(O)cc(O)c2)cc1` [resveratrol, 3,5,4′ trihydroxy trans stilbene], for which the solubility in water was 50 microgram per ml.
